Assay results reported in US9144538B2, “Cosmetic compositions containing substituted azole and methods for alleviating the signs of photoaged skin” (The Procter & Gamble Company, priority 2013, dated 2015).
Where two headings read alike, the source gives them in different places.

Assays:
CYP3A4 = CYP3A4 (Homo sapiens (Human), UniProt P08684); experiment: In vitro CYP3A4 inhibition assay (P450-GLO Assay kit)
Excerpt: The metabolism of retinoic acid and vitamin D in the skin is incompletely understood, but there is evidence for the involvement of CYP26A1, CYP3A4 and CYP2C8 in catalyzing the 4-hydroxylation of all-trans RA to 4-hydroxy-RA. It is believed, without being limited by theory, that CYP3A4 may be particularly important for ATRA metabolism in the skin. This is because CYP3A4 is expressed in skin, involved in RA metabolism, a CYP with one of the broadest substrate specificities of all of the known CYPs and available as a human recombinant protein in a commercial kit. Thus, a commercially available CYP3A4 assay was used as a surrogate to predict RAMBA potential in the skin.
The commercially available P450-GLO™ Assay kit (Promega Corporation, Madison Wis.) was used to screen various compounds for potential CYP activity, specifically CYP3A4A inhibition activity. CYP3A4A is thought to be among the primary CYP isoforms responsible for retinoic acid metabolism in the skin.
A commercially available P450-GLO™ Assay kit (Promega Corporation, Madison Wis.) is used to screen various compounds for CYP3A4A inhibition activity. CYP3A4A is thought to be one of the primary CYP isoforms responsible for retinoic acid metabolism in the skin.

[1] = system: ATRA 4-hydroxylase (CYP) activity of pig liver microsomes; experiment: In vitro ATRA 4-hydroxylase activity assay to determine CYP inhibition (pig liver microsomes)
Excerpt: Cytochrome P450 is a large and diverse group of enzymes that catalyze the oxidation of organic substances. […] Applicant evaluated the potential RAMBA activity of several azoles using pig liver microsomes, a rich source of CYP activity, comprising many different CYP 450 isoforms. […] As understanding in this area has progressed, a more specific CYP inhibition assay can be used to provide better predictivity of activity in human skin. Nevertheless, this assay may still be used as a general predictor of overall CYP activity.
All procedures were carried out under minimal light in order to prevent degradation of the retinoid samples.
Microsomal preparation: one lobe of fresh pig liver was obtained at the time of slaughter from a food-processing company and immediately placed in ice cold 15 mM KH2PO4/250 mM sucrose (pH 7.4) and kept on ice during transportation. A 10 g sample of liver was minced and homogenized in 30 mls of homogenization buffer (15 mM KH2PO4/250 mM sucrose) using a Tekmar homoginizer by pulsing 3 times 20 second pulses. […] The remaining pig liver was cut into 10-g pieces and wrapped in aluminum foil and stored at −80° C. The homogenates from the 8 samples were pooled and centrifuged at 13,000×g for 20 minutes at 4° C. to remove crude debris and the supernatant was further centrifuged at 100,000×g for 70 minutes at 4° C. The microsomal pellets were resuspended into 50 mls of 150 mM KH2PO4/1 mM DTT (pH 7.4) and 1 mL aliquots were stored at −80° C.
100-150 μg of pig liver microsomal protein in 150 mM KH2PO4 is incubated at 37° C. in the presence of radiolabeled ATRA and 5 mM NADPH for 90 min. The final ATRA concentration is 1 μM, as a combination of [20-Methyl-^3H]ATRA and unlabeled ATRA. Initially, radiolabeled ATRA may be used to assist in validating the method. Once retention times of retinoid metabolites are identified, unlabeled ATRA is used for screening. Compounds tested as possible competitive substrates are added to the assay 10 min prior to the addition of ATRA. Ethanol, containing 0.1% butylated hydroxytoluene (BHT) as an antioxidant, is used to stop the reactions. For recovery of ATRA the pH of reactions are adjusted to 3.0 before extraction with 0.1N HCl. Retinoids are extracted from the protein aqueous phase with 4 mL hexane, 1 ml 100 μg/ml BHT in water (pH 3). An additional 4 mlL of hexane (pH 3) is used for a second extraction. The organic extractions are pooled, evaporated to dryness using a speed vac, and resuspended in 62.5 μl acetonitrile containing 1 mg/ml BHT. Samples are analyzed by HPLC.
Mobile phases used for gradient elution of retinoids are those of Duell et al., J. Clin. Invest. […] Mobile phase A is acetonitrile:0.02 M ammonium acetate:acetic acid (1:1:0.01) and mobile phase B is acetonitrile:0.2M ammonium acetate:acetic acid (19:1:0.008). At the start of the HPLC run, solvent A is run 100% followed by a linear gradient to solvent B at 3 minutes, a shallow gradient to 81% solvent B at 38 minutes, and 100% solvent B at 40 minutes. […] Effluent from the HPLC column flows directly into a flow-through scintillation spectrometer (β-RAM). Because of the sensitivity limitations of the β-RAM spectrometer, it is not used to quantitate peak areas but rather to confirm ATRA and ATRA 4-hydroxylase activity. Calculated peaks areas (using Millenium software—Waters Corp.) of ATRA and ATRA metabolites are used to quantify relative activity levels.

[2] = read-out: IC50 (uM), CYP3A4 inhibition, P450-GLO Assay kit
[3] = read-out: IC50 (μM), in vitro 4-hydroxylase inhibition assay, pig liver microsomes, 1 μM ATRA, 90 min at 37° C.

Sequence of CYP3A4 (P08684 whole entry): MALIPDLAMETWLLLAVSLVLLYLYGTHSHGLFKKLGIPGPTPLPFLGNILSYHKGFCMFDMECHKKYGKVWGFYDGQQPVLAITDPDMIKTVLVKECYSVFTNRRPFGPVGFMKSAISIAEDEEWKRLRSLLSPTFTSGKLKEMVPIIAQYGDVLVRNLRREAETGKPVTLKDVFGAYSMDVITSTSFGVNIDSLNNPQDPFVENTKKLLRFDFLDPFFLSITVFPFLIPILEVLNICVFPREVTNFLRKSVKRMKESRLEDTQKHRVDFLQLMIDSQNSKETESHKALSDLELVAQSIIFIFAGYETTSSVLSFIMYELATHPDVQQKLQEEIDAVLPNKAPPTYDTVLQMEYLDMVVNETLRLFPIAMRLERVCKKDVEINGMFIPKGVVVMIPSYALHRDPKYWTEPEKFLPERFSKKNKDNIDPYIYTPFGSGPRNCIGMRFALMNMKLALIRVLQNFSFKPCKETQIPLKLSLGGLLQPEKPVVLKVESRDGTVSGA

IC50 (CYP3A4; human) [µM]	Compound	IC50 (CYP3A4; [2]) [µM]	other results
	CCc1cccc(C)c1N(C(=O)CCl)[C@@H](C)COC [Metolachlor]	> 10	hit / no hit, inhibition of CYP3A4 (CYP3A4; P450-GLO Assay kit): no hit (weak/no inhibition (IC50 value >10 μM))
> 10	NCCCn1ccnc1 [N-(3-Aminopropyl) imidazole]		
	C=Cn1ccnc1 [1-Vinylimidazole]	> 10	
	c1ccc(-n2ccnc2)cc1 [1-phenylimidazole]		CYP inhibitory activity (in words), 4-hydroxylase assay ([1]; pig liver microsomes): in the same range as climbazole; IC50 [1, 3]: 52.5 µM; hit / no hit, inhibition of CYP3A4 (CYP3A4; P450-GLO Assay kit): Hit; inhibitory activity in the CYP3A4 assay (in words) (CYP3A4; P450-GLO Assay kit): showed inhibitory activity
> 10	CCCCc1nc(C=O)c(Cl)[nH]1 [2-Butyl-4-chloro-5-formylimidazole]		
> 10	c1ccc(-c2n[nH]cc2-c2ccnc3ccccc23)nc1 [LY-364947]		
	O=C(n1ccnc1)n1ccnc1 [1′-1-Carbonylimidazole]	> 10	
> 10	CC(=O)/C=C/C1=C(C)CCCC1(C)C [β-Ionone]		
	c1ccc2[nH]cnc2c1 [Benzimidazole]	> 10	
	CC(=O)c1ccc(-n2ccnc2)cc1 [4′-(Imidazol-1yl) acetophenome]		hit / no hit, inhibition of CYP3A4 (CYP3A4; human): Hit
> 10	CC1=N[C@H](C(=O)O)CCN1 [Ectoine]		
	Cc1ncc[nH]1 [2-Methylimidazole]	> 10	
> 10	Clc1ncnc2[nH]cnc12 [6-Chloropurine]		
	Diltazem	> 10	hit / no hit, inhibition of CYP3A4 (CYP3A4; P450-GLO Assay kit): no hit (weak/no inhibition (IC50 value >10 μM))
	N=C(N)c1ccc(OCCCCCCOc2ccc(C(=N)N)cc2)cc1 [Hexamidine diisethionate]	> 10	
	c1coc(-c2nc3ccccc3[nH]2)c1 [Fuberidazole]	> 10	hit / no hit, inhibition of CYP3A4 (CYP3A4; human): no hit >10 uM (key: hit: strong inhibition (IC50 value<10 μM); no hit: weak/no inhibition (IC50 value >10 μM))
~10	O=C(/C=C/C=C/c1ccc2c(c1)OCO2)N1CCCCC1 [Piperine]		hit / no hit, inhibition of CYP3A4 (CYP3A4; human): Hit
	CC(C)(C(=O)c1cccnc1)c1cccnc1 [Metyrapone]		hit / no hit, inhibition of CYP3A4 (CYP3A4; human): Hit
	CCCCNC(=O)n1c(NC(=O)OC)nc2ccccc21 [Benomyl]	> 10	hit / no hit, inhibition of CYP3A4 (CYP3A4; P450-GLO Assay kit): no hit (weak/no inhibition (IC50 value >10 μM))
	c1ccc(-c2nc[nH]c2-c2ccccc2)cc1 [4,5-diphenylimidazole]		IC50 ([1]; pig, 90 min, pH 7.4): 100 µM
	Cc1cccc(C)c1N(Cn1cccn1)C(=O)CCl [Metazachlor]	> 10	hit / no hit, inhibition of CYP3A4 (CYP3A4; human): no hit >10 uM (key: hit: strong inhibition (IC50 value<10 μM); no hit: weak/no inhibition (IC50 value >10 μM))
	c1ccc(Cn2ccnc2)cc1 [1-benzylimidazole]		IC50 [1, 3]: 77.5 µM
	Clc1ccc(COC(Cn2ccnc2)c2ccc(Cl)cc2Cl)c(Cl)c1 (stereo not drawn) [Miconazole]		hit / no hit, inhibition of CYP3A4 (CYP3A4; human): Hit 5 uM
	CC(=O)n1ccnc1 [1-Acetylimidazole]	> 10	
	Clc1ccccc1-c1nc2ccccc2[nH]1 [2-(2-Chlorophenyl) benzimidazole]	> 10	
	Cc1nccn1Cc1ccccc1 [1-benzyl-2-methylimidazole]		IC50 ([1]; pig, 90 min, pH 7.4): 308 µM
> 10	CCc1ncc[nH]1 [2-Ethylimidazole]		
> 10	CC(NC(=O)[C@@H](N)CCC(=O)O)c1ncc[nH]1 (stereo partly drawn) [Glutamylamidoethyl]		
	Cc1ccc2cc3c(ccc4ccccc43)c3c2c1CC3 [Methylcholanthrene]	> 10	hit / no hit, inhibition of CYP3A4 (CYP3A4; P450-GLO Assay kit): Near Hit
	CCc1nc(C)c[nH]1 [2-Ethyl-4-methylimidazole]	> 10	

Compound	IC50 (CYP3A4; human) [µM]	IC50 (CYP3A4; [2]) [µM]	other results
c1ccc(-c2ncc[nH]2)cc1 [2-phenylimidazole, 2-Phenylimidazole]	> 10		CYP inhibitory activity (in words), 4-hydroxylase assay ([1]; pig liver microsomes): lacked any significant inhibitory activity; IC50 [1, 3]: > 500 µM; inhibitory activity in the CYP3A4 assay (in words) (CYP3A4): did not; hit / no hit, inhibition of CYP3A4 (CYP3A4; P450-GLO Assay kit): no hit (weak/no inhibition (IC50 value >10 μM))
Nc1nc[nH]n1 [Amitrol]	> 10		
Cn1ccnc1 [1-Methylimidazole]	> 10		
N[C@@H](Cc1c[nH]cn1)C(=O)O [Histidine]	> 10		
